Data: paper PMC12903857
Values joined by “and” are separate entries in the source; they are usually repeats but may differ in a detail not shown here. Equal entries are not always repeated. Blank lines part the entries; values can stand above or below the compound they belong to.

Tests used:
14-3-3σ/C-RAF [1] = molecular target: T1, 14-3-3σ/C-RAF (Homo sapiens, UniProt P31947); test: cell-based
Target sequence in this assay (P04049 whole entry partner, one chain of several): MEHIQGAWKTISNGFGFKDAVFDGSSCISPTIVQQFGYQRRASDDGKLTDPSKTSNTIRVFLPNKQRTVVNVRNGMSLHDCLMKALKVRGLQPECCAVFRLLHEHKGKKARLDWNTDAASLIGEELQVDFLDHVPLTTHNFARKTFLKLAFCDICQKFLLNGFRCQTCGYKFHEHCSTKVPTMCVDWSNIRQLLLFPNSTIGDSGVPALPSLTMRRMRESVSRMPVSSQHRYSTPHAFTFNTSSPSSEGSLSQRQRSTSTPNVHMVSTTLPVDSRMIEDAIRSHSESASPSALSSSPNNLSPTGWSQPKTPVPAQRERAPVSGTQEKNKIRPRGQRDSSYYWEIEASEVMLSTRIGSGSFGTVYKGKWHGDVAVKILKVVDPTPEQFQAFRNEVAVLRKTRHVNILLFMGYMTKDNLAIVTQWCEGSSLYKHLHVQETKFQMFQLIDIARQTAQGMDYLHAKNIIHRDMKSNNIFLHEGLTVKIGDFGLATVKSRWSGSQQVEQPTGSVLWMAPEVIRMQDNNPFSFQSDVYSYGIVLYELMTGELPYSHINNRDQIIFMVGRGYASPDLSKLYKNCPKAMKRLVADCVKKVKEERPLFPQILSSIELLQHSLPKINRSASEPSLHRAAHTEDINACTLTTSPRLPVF
Description: (§1) Stabilization of the interaction with a molecular glue was expected to lead to an increase in the intensity of the BRET signal.
Both cell lines were grown in
All compound treatments were 24 hours.
Brieﬂy, HEK293T cells were

N-RAS Q61L/C-RAF = details: HEK293T; 100% = DMSO mBU, 0% = N-RAS/C-RAF R89L
pERK [2] = test: Lumit immunoassay for pERK with 14-3-3 C38N mutant; assay type: cell-based; details: HEK293T
14-3-3σ/TSC2 = 14-3-3σ/TSC2 (Homo sapiens, UniProt P31947); test: FA compound titration follow-up from selectivity panel
Description: (§2) concentraton (50 μM, maximum eﬀect) was used.
giving the anisotropy change (ΔAU ) .
sele tme: 0 ms, gain: optmal).

14-3-3σ/A-RAF = 14-3-3σ/A-RAF (Homo sapiens, UniProt P31947)
B-RAF/C-RAF = test: NanoBRET for heterodimer formation B-RAF/C-RAF
A-RAF/C-RAF = test: NanoBRET for heterodimer formation A-RAF/C-RAF
14-3-3σ/C-RAF259 [3] = molecular target: T2, 14-3-3σ/C-RAF259 (Homo sapiens, UniProt P31947); test: Fluorescence anisotropy (FA) compound titration; assay type: binding; details: 10 nM C-RAF259-FAM 10-mer, 5 μΜ 14-3-3σ, overnight; read-out: Compound titrations EC50 value C-RAF259
14-3-3σ/SOS1 = 14-3-3σ/SOS1 (Homo sapiens, UniProt P31947); test: FA compound titration follow-up from selectivity panel
Description: as §2
giving the anisotropy change (ΔAU ) .
sele tme: 0 ms, gain: optmal).

[4] = test system: 80 peptides representing a diverse set of 14-3-3 clients; test: FA selectivity panel, single point; details: 10.5 μM compound, 100 nM client peptides, overnight; hit = change in anisotropy of more than 15 units
Description: as §2
giving the anisotropy change (ΔAU ) .
sele tme: 0 ms, gain: optmal).

14-3-3σ/TAZ = 14-3-3σ/TAZ (Homo sapiens, UniProt P31947); test: FA compound titration follow-up from selectivity panel
Description: as §2
giving the anisotropy change (ΔAU ) .
sele tme: 0 ms, gain: optmal).

14-3-3σ/B-RAF = 14-3-3σ/B-RAF (Homo sapiens, UniProt P31947)
14-3-3σ/KC1A = 14-3-3σ/KC1A (Homo sapiens, UniProt P31947); test: FA compound titration follow-up from selectivity panel
Description: as §2
giving the anisotropy change (ΔAU ) .
sele tme: 0 ms, gain: optmal).

pERK [5] = test: Lumit immunoassay for pERK levels in HEK293T cells; assay type: cell-based; details: HEK293T, 24 h, EGF stimulation
14-3-3σ/C-RAF259 [6] = molecular target: T2, 14-3-3σ/C-RAF259; test: FA compound titration follow-up from selectivity panel
Description: as §2
giving the anisotropy change (ΔAU ) .
sele tme: 0 ms, gain: optmal).

C-RAF/C-RAF = details: with N-RAS Q61L; 100% = DMSO mBU
Description: We aimed to study potential effects of the molecular glues on RAF-dimer formation using a NanoBRET assay.
All compound treatments were 24 hours.

14-3-3σ/C-RAF [7] = molecular target: T1, 14-3-3σ/C-RAF
14-3-3σ = molecular target: T3, 14-3-3σ (Homo sapiens, UniProt P31947); test: Intact mass spectrometry assay, apo (no peptide); assay type: binding; parameters: full-length for mass spectrometry and fluorescence anisotropy assays; made in house; host or cells: E. coli Rosetta 2(DE3)pLysS, pPROEX HTb vector; details: 1 μM compound, 100 nM 14-3-3σ
T3 sequence (P31947 1-248): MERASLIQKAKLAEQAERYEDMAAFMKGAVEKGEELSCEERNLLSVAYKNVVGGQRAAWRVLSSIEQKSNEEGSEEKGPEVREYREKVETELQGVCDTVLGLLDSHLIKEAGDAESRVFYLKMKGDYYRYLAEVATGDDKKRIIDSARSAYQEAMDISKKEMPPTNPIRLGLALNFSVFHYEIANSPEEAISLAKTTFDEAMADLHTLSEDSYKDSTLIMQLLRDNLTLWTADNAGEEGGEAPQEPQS

14-3-3σ/C-RAF259 [8] = molecular target: T2, 14-3-3σ/C-RAF259; test: FA protein titration, C-RAF259 peptide; details: appKd DMSO / appKd compound
Description: The following peptdes were used in the FA selectvity panel:
SOS1 pS1161: FITC-Ahx-PRRRPE{pS}APAESS-CONH2, TSC2 pS1254: FAM-Ahx-LY K S L { p S } V PA A S TA K-CONH2, ARHG2 pS886: FAM-Ahx-PVDPRRR{pS}LPAGDAL-CONH2.
Mass spectrometry dose response assays were performed on a Waters Acquity UPLC/ Xevo G2-XS Q-To f m a s s
samples prior to applicaton on the mass spectrometer. For 19-point MS dose responses, 50 mM compound stocks
transferred in the assay plates.
Assay buﬀer was TRIS (10 mM, pH 8.0) and ﬁnal volume per well was 50
μL, with ﬁnal top concentraton of compounds dose response series at 1 mM.
24 μL of sample were needed for the tme-course
(BSA; Sigma-Aldrich). Final DMSO in the assay was less than 1%. Diluton series of 14-3-3 proteins or compounds
dispensed in the assay plates. […] Ea ch compound was measured in triplicates, i n two i ndependent experi ments. Fluorescence anisotropy measurements were performed directly and a€er overnight incubaton at room temperature. The high
(10 nM) and DMSO or compound (100 µM). Fluorescence anisotropy measurements were performed a€er overnight incubaton at room temperature .

14-3-3σ/C-RAF [9] = molecular target: T1, 14-3-3σ/C-RAF; details: HEK293T cells, mBU compound / mBU DMSO
Target sequence in this assay (P04049 whole entry partner, one chain of several): as the sequence (P04049 whole entry partner, one chain of several) above
Description: as §1
Both cell lines were grown in
All compound treatments were 24 hours.
Brieﬂy, HEK293T cells were

14-3-3σ/B-RAF365 = molecular target: T4, 14-3-3σ/B-RAF365 (Homo sapiens, UniProt P31947); test: Intact mass spectrometry assay with B-RAF365 peptide; assay type: binding; details: 1 μM compound, 100 nM 14-3-3σ, 5 µM peptide
T4 construct: full-length for mass spectrometry and fluorescence anisotropy assays; made in house; host or cells: E. coli Rosetta 2(DE3)pLysS (14-3-3σ); peptides from Elim Biopharmaceuticals

14-3-3σ/A-RAF214 = 14-3-3σ/A-RAF214 (Homo sapiens, UniProt P31947); test: Intact mass spectrometry assay with A-RAF214 peptide; details: 1 μM compound, 100 nM 14-3-3σ, 16 µM peptide
Description: Ea ch compound was measured in triplicates, i n two i ndependent experi ments. Fluorescence anisotropy measurements were performed directly and a€er overnight incubaton at room temperature.
Fluorescence anisotropy measurements were performed a€er overnight incubaton at room temperature .

14-3-3σ/C-RAF259 [10] = molecular target: T2, 14-3-3σ/C-RAF259; test: Intact mass spectrometry assay with C-RAF259 phospho-peptide; assay type: binding; parameters: full-length for mass spectrometry and fluorescence anisotropy assays; made in house; host or cells: E. coli Rosetta 2(DE3)pLysS (14-3-3σ); peptides from Elim Biopharmaceuticals; details: 1 μM compound, 100 nM 14-3-3σ, 18 µM peptide
[11] = 14-3-3σ covalently bound to compound, Replicate 1 and 2

SMILES: O=C(CCl)NCC1CCN(S(=O)(=O)c2ccc(I)cc2)CC1 [Compound 23]
EC50 (14-3-3σ/C-RAF [1]): 0.18 µM
reduction of the N-RAS Q61L/C-RAF interaction (N-RAS Q61L/C-RAF): 75%
effect on pERK with the C38N mutant (pERK [2]): No effect
EC50 (14-3-3σ/TSC2): 19.2 µM
ka, single replicates, A-RAF 12-mer (14-3-3σ/A-RAF; [11]): 1.25e+07 M⁻¹ s⁻¹ and 1.02e+07 M⁻¹ s⁻¹
kd, single replicates, A-RAF 12-mer (14-3-3σ/A-RAF; [11]): 0.0189 s⁻¹ and 0.0196 s⁻¹
affinity increase, A-RAF (14-3-3σ/A-RAF; vs binary interaction): 1000 fold
decrease of the B-RAF/C-RAF dimer (B-RAF/C-RAF): 15%
decrease of the A-RAF/C-RAF interaction (A-RAF/C-RAF): 23%
EC50 (14-3-3σ/C-RAF259 [3]): 1 ± 0.5 µM
EC50 (14-3-3σ/SOS1): 24.2 µM
clients emerged as hits [4]: four
EC50 (14-3-3σ/TAZ): 11.7 µM
ka, single replicates, B-RAF 12-mer (14-3-3σ/B-RAF; [11]): 9.53e+06 M⁻¹ s⁻¹ and 8.53e+06 M⁻¹ s⁻¹
kd, single replicates, B-RAF 12-mer (14-3-3σ/B-RAF; [11]): 0.0572 s⁻¹ and 0.0569 s⁻¹
affinity increase, B-RAF (14-3-3σ/B-RAF; vs binary interaction): 400 fold
EC50 (14-3-3σ/KC1A): 38.1 µM
IC50 (pERK [5]; Homo sapiens, HEK-293T, 14-3-3σ and C-RAF transfected): 4.4 µM
EC50 (14-3-3σ/C-RAF259 [6]): 5.1 µM
decrease in C-RAF homodimer formation (C-RAF/C-RAF): 47%
ka, single replicates, C-RAF 12-mer (14-3-3σ/C-RAF [7]; [11]): 1.12e+07 M⁻¹ s⁻¹ and 1.09e+07 M⁻¹ s⁻¹
kd, single replicates, C-RAF 12-mer (14-3-3σ/C-RAF [7]; [11]): 0.0131 s⁻¹ and 0.0133 s⁻¹
affinity increase, C-RAF (14-3-3σ/C-RAF [7]; vs binary interaction): 2000 fold

% bound, APO, 1h (14-3-3σ; 1 h): 0%
% bound, APO, 8h (14-3-3σ; 8 h): 0%
% bound, APO, 16h (14-3-3σ; 16 h): 1.9%
% bound, APO, 24h (14-3-3σ; 24 h): 2.9%
Fold stabilization (100 µM compound), C-RAF259 (10mer) (14-3-3σ/C-RAF259 [8]): lacked an effect
Fold stabilization (100 µM compound), C-RAF259 (10mer) (14-3-3σ/C-RAF259 [8]; listed as (8)): 1 fold
EC50 (14-3-3σ/C-RAF259 [3]): > 1000 µM
14-3-3/C-RAF NanoBRET fold stab. (14-3-3σ/C-RAF [9]): No increase
% bound, B-RAF365 (10mer), 1h (14-3-3σ/B-RAF365; 1 h): 0%
% bound, B-RAF365 (15mer), 1h (14-3-3σ/B-RAF365; 1 h): 0%
% bound, B-RAF365 (10mer), 8h (14-3-3σ/B-RAF365; 8 h): 0%
% bound, B-RAF365 (15mer), 8h (14-3-3σ/B-RAF365; 8 h): 0%
% bound, B-RAF365 (10mer), 16h (14-3-3σ/B-RAF365; 16 h): 2.5%
% bound, B-RAF365 (15mer), 16h (14-3-3σ/B-RAF365; 16 h): 0.9%
% bound, B-RAF365 (10mer), 24h (14-3-3σ/B-RAF365; 24 h): 2.5%
% bound, B-RAF365 (15mer), 24h (14-3-3σ/B-RAF365; 24 h): 3.8%
% bound, A-RAF214 (15mer), 1h (14-3-3σ/A-RAF214; 1 h): 0%
% bound, A-RAF214 (15mer), 8h (14-3-3σ/A-RAF214; 8 h): 0%
% bound, A-RAF214 (15mer), 16h (14-3-3σ/A-RAF214; 16 h): 0%
% bound, A-RAF214 (15mer), 24h (14-3-3σ/A-RAF214; 24 h): 0%
% bound, C-RAF259 (11mer), 1h (14-3-3σ/C-RAF259 [10]; 1 h): 2.9% and 0%
% bound, C-RAF259 (15mer), 1h (14-3-3σ/C-RAF259 [10]; 1 h): 0%
% bound, C-RAF259 (11mer), 8h (14-3-3σ/C-RAF259 [10]; 8 h): 5.6% and 0%
% bound, C-RAF259 (15mer), 8h (14-3-3σ/C-RAF259 [10]; 8 h): 0%
% bound, C-RAF259 (11mer), 16h (14-3-3σ/C-RAF259 [10]; 16 h): 5.6%
% bound, C-RAF259 (15mer), 16h (14-3-3σ/C-RAF259 [10]; 16 h): 0%
% bound, C-RAF259 (11mer), 24h (14-3-3σ/C-RAF259 [10]; 24 h): 5.6% and 2.9%
% bound, C-RAF259 (15mer), 24h (14-3-3σ/C-RAF259 [10]; 24 h): 0%
SMILES: O=C(CCl)NCC1CCN(S(=O)(=O)Cc2cccc(F)c2)CC1 [Compound 8]
reduction of the N-RAS Q61L/C-RAF interaction (N-RAS Q61L/C-RAF): did not affect
effect on phosphorylation of ERK (pERK [5]; 23 at 10 μM): No effect
